# Data published in patent EP0646315B1, “Novel compositions containing an auxin transport inhibitor and another herbicide” (Novartis AG, priority 1993, dated 1995).
# Legend:
# pigweed [1] = experiment: Field trial, post-emergent tank mix in field corn; assay type: in vivo, Amaranthus sp.; details: post-emergent 35 days after seeding, weeds 41 to 89 cm, foliar broadcast tank mix, (z) 0.275 kg/ha, (a) 0.011 kg/ha, Aquagene 0.9 l/ha where named
# Protocol: (§1) A field trial was conducted against velvetleaf and pigweed in field corn. Application was post-emergent 35 days after seeding with weeds at a height of 41 to 89 cm. Application was of tank mixed formulation by foliar applied broadcast treatment. Compound (a) above was tank mixed as is. Compound (z) above was tank mixed in the form of a 0.5 kg/l s.c. commercially available under the trademark […]®. Aquagene is a commercially available surfactant, (Universal Coop Incorporated, Minneapolis, MN).
# velvetleaf [2] = experiment: Field trial, post-emergent tank mix in field corn; assay type: in vivo, Abutilon theophrasti; details: post-emergent 35 days after seeding, weeds 41 to 89 cm, foliar broadcast tank mix, (z) 0.275 kg/ha, (a) 0.011 kg/ha, Aquagene 0.9 l/ha where named
# Protocol: as §1
# pigweed [3] = experiment: Greenhouse test, post-emergence; assay type: in vivo, Amaranthus sp.; details: treatment 10 days post-emergence, evaluation 18 days after treatment, (e) 0.01 kg/ha, (z) 0.02 kg/ha, 3 repetitions
# Protocol: (§2) A greenhouse test was conducted against velvetleaf, pigweed, morningglory and cocklebur. Treatment was at 10 days post-emergence and evaluation at 18 days after treatment. Compound (e) was formulated as technical a.i. in a mixture of equal parts acetone and water with 1/2% surfactant. Compound (z) was used in the commercially available form […]® herbicide (=480g/L a.i. equivalent) in water with 1/2% surfactant. The tank mixes were applied in a linear spray chamber with 3 repetitions per concentration.
# morningglory = experiment: Greenhouse test, post-emergence; assay type: in vivo, Ipomoea sp.; details: treatment 10 days post-emergence, evaluation 18 days after treatment, (e) 0.01 kg/ha, (z) 0.02 kg/ha, 3 repetitions
# Protocol: as §2
# velvetleaf [4] = experiment: Greenhouse test, post-emergence; assay type: in vivo, Abutilon theophrasti; details: treatment 10 days post-emergence, evaluation 18 days after treatment, (e) 0.01 kg/ha, (z) 0.02 kg/ha, 3 repetitions
# Protocol: as §2
# cocklebur = experiment: Greenhouse test, post-emergence; assay type: in vivo, Xanthium strumarium; details: treatment 10 days post-emergence, evaluation 18 days after treatment, (e) 0.01 kg/ha, (z) 0.02 kg/ha, 3 repetitions
# Protocol: as §2
Molecule,% of control Pigweed (pigweed [1]),% of control Velvetleaf (velvetleaf [2]),"activity at 275 g/ha (pigweed [1]; Amaranthus retroflexus, 840 h, read-out: % of control Pigweed)",% control Pigweed (pigweed [3]),% control Morningglory (morningglory),% control Velvetleaf (velvetleaf [4]),% control Cocklebur (cocklebur),"activity at 275 g/ha (velvetleaf [2]; Abutilon theophrasti, 840 h, read-out: % of control Velvetleaf)"
"2-acetylnicotinic acid 4-(3,5-difluorophenyl)semicarbazone 2-(2-hydroxyethoxy)ethyl-ammonium salt [Compound (a)]",18%,13%,,,,,,
"COc1c(Cl)ccc(Cl)c1C(=O)O [Compound (z), dicamba]",,,30%,35%,35%,35%,75%,18%
